Results taken from patent US4753953A, “Pyridonecarboxylic acid derivatives and antibacterial pharmaceutical compositions thereof” (priority 1985, dated 1988).

Experiments:
F. necrophorum S-45 = assay: MIC, in vitro antibacterial activity (standard strains); format: cell-based; conditions: 10^6 cells/ml; Gram -
Shigella sonnei IID 969 = assay: as above; format: cell-based; conditions: 10^6 cells/ml; Gram -
Description: Minimal inhibitory concentrations (MICs) were determined in accordance with the method recommended by Japan Society of Chemotherapy.

[1] = system: Citrobacter freundii IID 976; assay: as above; format: cell-based; conditions: 10^6 cells/ml; Gram -
B. vulgatus KYA 29327 = assay: as above; format: cell-based; conditions: 10^6 cells/ml; Gram -
[2] = system: S. aureus IID 670 (Terajima); assay: as above; format: cell-based, Staphylococcus aureus; conditions: 10^6 cells/ml; Gram +
E. coli ATCC 10536 = assay: as above; format: cell-based, Escherichia coli; conditions: 10^6 cells/ml; Gram -
[3] = system: Fusobacterium mortiferum 4249; assay: as above; format: cell-based; conditions: 10^6 cells/ml; Gram -
B. distasonis 8503 = assay: as above; format: cell-based; conditions: 10^6 cells/ml; Gram -
[4] = system: Serratia marcescens IID 618; assay: as above; format: cell-based; conditions: 10^6 cells/ml; Gram -
S. pneumoniae IID 552 = assay: as above; format: cell-based; conditions: 10^6 cells/ml; Gram +
[5] = system: Bacteroides fragilis GM 7000; assay: as above; format: cell-based; conditions: 10^6 cells/ml; Gram -
C. ramosum = assay: as above; format: cell-based; conditions: 10^6 cells/ml; Gram +
C. perfringens KYA 13123 = assay: microbe, parasite or virus in culture; format: cell-based; conditions: 10^6 cells/ml; Gram +
S. pyogenes IID 692 = assay: MIC, in vitro antibacterial activity (standard strains); format: cell-based, Streptococcus pyogenes; conditions: 10^6 cells/ml; Gram +
E. faecalis IID 682 = assay: as above; format: cell-based; conditions: 10^6 cells/ml; Gram +
[6] = system: Morganella morganii IID 602; assay: as above; format: cell-based; conditions: 10^6 cells/ml; Gram -
K. pneumoniae 1-220S = assay: as above; format: cell-based, Klebsiella pneumoniae; conditions: 10^6 cells/ml; Gram -
B. fragilis 0558 = assay: as above; format: cell-based, Bacteroides fragilis; conditions: 10^6 cells/ml; Gram -
[7] = system: B. thetaiotaomicron (0661); assay: as above; format: cell-based; conditions: 10^6 cells/ml; Gram -
[8] = system: Peptostreptococcus anaerobius KYA 27337; assay: as above; format: cell-based; conditions: 10^6 cells/ml; Gram +
P. cepacia GIFU 518 = assay: as above; format: cell-based; conditions: 10^6 cells/ml; Gram -
S. epidermidis IID 866 = assay: as above; format: cell-based; conditions: 10^6 cells/ml; Gram +
[9] = system: Yersinia enterocolitica IID 981; assay: as above; format: cell-based; conditions: 10^6 cells/ml; Gram -
P. maltophilia GIFU 2491 = assay: as above; format: cell-based; conditions: 10^6 cells/ml; Gram -
S. aureus Smith = assay: as above; format: cell-based, Staphylococcus aureus; conditions: 10^6 cells/ml; Gram +
[10] = system: Enterobacter cloacae IID 977; assay: as above; format: cell-based; conditions: 10^6 cells/ml; Gram -
Pst. micros UPI 5464-1 = assay: as above; format: cell-based; conditions: 10^6 cells/ml; Gram +
[11] = system: Klebsiella pneumoniae KY(GN)6445; assay: as above; format: cell-based; conditions: 10^6 cells/ml; Gram -
[12] = system: Salmonella enteritidis IID 604; assay: as above; format: cell-based; conditions: 10^6 cells/ml; Gram -
[13] = system: Escherichia coli NIHJ JC-2; assay: as above; format: cell-based; conditions: 10^6 cells/ml; Gram -
P. aeruginosa IFO 12689 = assay: as above; format: cell-based, Pseudomonas aeruginosa; conditions: 10^6 cells/ml; Gram -
[14] = system: Eubacterium lentum GAI 5242; assay: as above; format: cell-based; conditions: 10^6 cells/ml; Gram +
[15] = system: Propionibacterium acens 11828; assay: as above; format: cell-based; conditions: 10^6 cells/ml; Gram +
P. mirabilis IID 994 = assay: as above; format: cell-based; conditions: 10^6 cells/ml; Gram -
E. limosum KYA 8486 = assay: as above; format: cell-based; conditions: 10^6 cells/ml; Gram +
E. coli ML 4707 = assay: as above; format: cell-based, Escherichia coli; conditions: 10^6 cells/ml; Gram -; Table 1
[16] = system: Streptococcus pyogenes (S-8); assay: as above; format: cell-based; conditions: 10^6 cells/ml; Gram +
[17] = system: Proteus vulgaris IFO 3167; assay: as above; format: cell-based; conditions: 10^6 cells/ml; Gram -
[18] = system: Staphylococcus aureus 209 P; assay: as above; format: cell-based; conditions: 10^6 cells/ml; Gram +
F. varium KYA 8501 = assay: as above; format: cell-based; conditions: 10^6 cells/ml; Gram -
[19] = system: Alcaligenes faecalis 0114002; assay: as above; format: cell-based; conditions: 10^6 cells/ml; Gram -
[20] = system: Bacillus subtilis PCI 219; assay: as above; format: cell-based; conditions: 10^6 cells/ml; Gram +
B. fragilis 25285 = assay: as above; format: cell-based, Bacteroides fragilis; conditions: 10^6 cells/ml; Gram -
[21] = system: Peptococcus magnus KY 017; assay: as above; format: cell-based; conditions: 10^6 cells/ml; Gram +
P. aeruginosa IID 1210 = assay: as above; format: cell-based, Pseudomonas aeruginosa; conditions: 10^6 cells/ml; Gram -
[22] = system: Acinetobacter anitratus IID 876; assay: as above; format: cell-based; conditions: 10^6 cells/ml; Gram -
[23] = system: Veillonella parvula KYA 10790; assay: as above; format: cell-based; conditions: 10^6 cells/ml; Gram -
[24] = system: Pseudomonas aeruginosa V-1; assay: as above; format: cell-based; conditions: 10^6 cells/ml; Gram -

“7-(3-Aminomethyl-4-methyl-1-pyrrolidinyl)-1-cyclopropyl-6,8-difluoro-1,4-dihydro-4-oxo-3-quinolinecarboxylic acid [Example 2]” gave an MIC (F. necrophorum S-45) of 0.39 mg/L, an MIC (Shigella sonnei IID 969) of 0.025 mg/L and an MIC [1] of 0.05 mg/L. It also gave an MIC (B. vulgatus KYA 29327) of 0.78 mg/L, an MIC [2] of 0.025 mg/L and an MIC (E. coli ATCC 10536) of 0.025 mg/L. It also gave an MIC [3] of 0.39 mg/L, an MIC (B. distasonis 8503) of 3.13 mg/L and an MIC [4] of 0.10 mg/L. For the same substance, the MIC (S. pneumoniae IID 552) was 0.05 mg/L, the MIC [5] was 0.78 mg/L and the MIC (C. ramosum) was 0.78 mg/L. For the same substance, the MIC (C. perfringens KYA 13123) was 0.20 mg/L, the MIC (S. pyogenes IID 692) was 0.05 mg/L and the MIC (E. faecalis IID 682) was 0.10 mg/L. For the same substance, the MIC [6] was 0.10 mg/L, the MIC (K. pneumoniae 1-220S) was 0.05 mg/L and the MIC (B. fragilis 0558) was 0.39 mg/L. The MIC [7] was 0.78 mg/L, the MIC [8] was 0.10 mg/L and the MIC (P. cepacia GIFU 518) was 0.39 mg/L. For the same substance, the MIC (S. epidermidis IID 866) was 0.025 mg/L, the MIC [9] was 0.05 mg/L and the MIC (P. maltophilia GIFU 2491) was 0.20 mg/L. The MIC (S. aureus Smith) was 0.025 mg/L, the MIC [10] was 0.05 mg/L and the MIC (Pst. micros UPI 5464-1) was 0.39 mg/L. For the same substance, the MIC [11] was 0.05 mg/L, the MIC [12] was 0.05 mg/L and the MIC [13] was 0.025 mg/L. It also gave an MIC (P. aeruginosa IFO 12689) of 0.78 mg/L, an MIC [14] of 0.78 mg/L and an MIC [15] of 0.39 mg/L. For the same substance, the MIC (P. mirabilis IID 994) was 0.05 mg/L, the MIC (E. limosum KYA 8486) was 1.56 mg/L and the MIC (E. coli ML 4707) was 0.025 mg/L. For the same substance, the MIC [16] was 0.05 mg/L, the MIC [17] was 0.05 mg/L and the MIC [18] was 0.025 mg/L. The MIC (F. varium KYA 8501) was 0.78 mg/L, the MIC [19] was 0.20 mg/L and the MIC [20] was 0.0125 mg/L. For the same substance, the MIC (B. fragilis 25285) was 0.39 mg/L, the MIC [21] was 0.20 mg/L and the MIC (P. aeruginosa IID 1210) was 0.78 mg/L. The MIC [22] was 0.05 mg/L, the MIC [23] was 0.39 mg/L and the MIC [24] was 0.10 mg/L.
